Assay results reported in PubChem BioAssay AID1963958 (Molecular Pharmacology Branch, DTP, NCI, 2024).

System: MDA-MB-231 multicell spheroids, viability
Assay: Anticancer human tumor MDA-MB-231 cell line growth inhibition [PI3K];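 note: spheroids exposed to agents for seven days before reading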;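 for viability, T/C: percent of vehicle control luminescence with DMSO treated spheroids as 100%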
Conditions: for IC50: curve of first compound; for viability, T/C: stronger effect = lower value
Method in brief: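 Tumor cells grown as multi-cell spheroids with HUVEC endothelial cells and MSC fibroblast-like stroma were treated with targeted agents combined with inavolisib, alpelisib, duvelisib or copanlisib. Doses fell in half-log steps from near clinical Cmax, else from 10 microM. Viability was measured.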

[1] = second compound 0.00316 µM, first compound 0.0316 µM
[2] = second compound 0.00316 µM, first compound 0.1 µM
[3] = second compound 0.00316 µM, first compound 0.316 µM
[4] = second compound 0.00316 µM, first compound 1 µM
[5] = second compound 0.00316 µM, first compound 3.16 µM
[6] = second compound 0.00316 µM, first compound 10 µM
[7] = second compound 0.01 µM, first compound 0.0316 µM
[8] = second compound 0.01 µM, first compound 0.1 µM
[9] = second compound 0.01 µM, first compound 0.316 µM
[10] = second compound 0.01 µM, first compound 1 µM
[11] = second compound 0.01 µM, first compound 3.16 µM
[12] = second compound 0.01 µM, first compound 10 µM
[13] = second compound 0.0316 µM, first compound 0.0316 µM
[14] = second compound 0.0316 µM, first compound 0.1 µM
[15] = second compound 0.0316 µM, first compound 0.316 µM
[16] = second compound 0.0316 µM, first compound 1 µM
[17] = second compound 0.0316 µM, first compound 3.16 µM
[18] = second compound 0.0316 µM, first compound 10 µM
[19] = second compound 0.1 µM, first compound 0.0316 µM
[20] = second compound 0.1 µM, first compound 0.1 µM
[21] = second compound 0.1 µM, first compound 0.316 µM
[22] = second compound 0.1 µM, first compound 1 µM
[23] = second compound 0.1 µM, first compound 3.16 µM
[24] = second compound 0.1 µM, first compound 10 µM
[25] = second compound 0.316 µM, first compound 0.0316 µM
[26] = second compound 0.316 µM, first compound 0.1 µM
[27] = second compound 0.316 µM, first compound 0.316 µM
[28] = second compound 0.316 µM, first compound 1 µM
[29] = second compound 0.316 µM, first compound 3.16 µM
[30] = second compound 0.316 µM, first compound 10 µM
[31] = second compound 1 µM, first compound 0.0316 µM
[32] = second compound 1 µM, first compound 0.1 µM
[33] = second compound 1 µM, first compound 0.316 µM
[34] = second compound 1 µM, first compound 1 µM
[35] = second compound 1 µM, first compound 3.16 µM
[36] = second compound 1 µM, first compound 10 µM

## C#Cc1c(F)ccc2cc(O)cc(-c3ncc4c(N5CC6CCC(C5)N6)nc(OCC56CCCN5CC(F)C6)nc4c3F)c12 (stereo unspecified) + COc1c(OCCCN2CCOCC2)ccc2c3n(c(=NC(=O)c4cnc(N)nc4)nc12)CCN3
Second compound 0.00316 µM
  IC50: > 10000 nM
Second compound 0.01 µM
  IC50: 8600 nM
Second compound 0.0316 µM
  IC50: 2020 nM
Second compound 0.1 µM
  IC50: < 31.6 nM
Second compound 0.316 µM
  IC50: < 31.6 nM
Second compound 1 µM
  IC50: < 31.6 nM
[1]
  viability, T/C: 96%
[2]
  viability, T/C: 101%
[3]
  viability, T/C: 81.7%
[4]
  viability, T/C: 88.4%
[5]
  viability, T/C: 78.4%
[6]
  viability, T/C: 52.7%
[7]
  viability, T/C: 77.9%
[8]
  viability, T/C: 77.8%
[9]
  viability, T/C: 72.9%
[10]
  viability, T/C: 74.2%
[11]
  viability, T/C: 66.3%
[12]
  viability, T/C: 47.5%
[13]
  viability, T/C: 60.6%
[14]
  viability, T/C: 56.3%
[15]
  viability, T/C: 60.5%
[16]
  viability, T/C: 54.6%
[17]
  viability, T/C: 45.7%
[18]
  viability, T/C: 35%
[19]
  viability, T/C: 47%
[20]
  viability, T/C: 46.7%
[21]
  viability, T/C: 46.9%
[22]
  viability, T/C: 40.8%
[23]
  viability, T/C: 33%
[24]
  viability, T/C: 21.5%
[25]
  viability, T/C: 32.2%
[26]
  viability, T/C: 31.5%
[27]
  viability, T/C: 26.4%
[28]
  viability, T/C: 23.4%
[29]
  viability, T/C: 18.1%
[30]
  viability, T/C: 13.3%
[31]
  viability, T/C: 24.8%
[32]
  viability, T/C: 23.1%
[33]
  viability, T/C: 20.2%
[34]
  viability, T/C: 16.8%
[35]
  viability, T/C: 15.1%
[36]
  viability, T/C: 10.4%

## CC1(C)CCC(Nc2ncc(C(F)(F)F)c(-c3c[nH]c4c(P(C)(C)=O)c(C#N)ccc34)n2)CN1 (stereo unspecified) + COc1c(OCCCN2CCOCC2)ccc2c3n(c(=NC(=O)c4cnc(N)nc4)nc12)CCN3
Second compound 0.00316 µM
  IC50: 3280 nM
Second compound 0.01 µM
  IC50: < 31.6 nM
Second compound 0.0316 µM
  IC50: < 31.6 nM
Second compound 0.1 µM
  IC50: < 31.6 nM
Second compound 0.316 µM
  IC50: < 31.6 nM
Second compound 1 µM
  IC50: < 31.6 nM
[1]
  viability, T/C: 52.3%
[2]
  viability, T/C: 45%
[3]
  viability, T/C: 49.5%
[4]
  viability, T/C: 55%
[5]
  viability, T/C: 55.7%
[6]
  viability, T/C: 4.47%
[7]
  viability, T/C: 48.4%
[8]
  viability, T/C: 43.3%
[9]
  viability, T/C: 45.8%
[10]
  viability, T/C: 50.7%
[11]
  viability, T/C: 45.2%
[12]
  viability, T/C: 3.69%
[13]
  viability, T/C: 42.3%
[14]
  viability, T/C: 43.2%
[15]
  viability, T/C: 38.2%
[16]
  viability, T/C: 41.5%
[17]
  viability, T/C: 38.8%
[18]
  viability, T/C: 3.49%
[19]
  viability, T/C: 35.4%
[20]
  viability, T/C: 31.1%
[21]
  viability, T/C: 31.5%
[22]
  viability, T/C: 30.6%
[23]
  viability, T/C: 30.7%
[24]
  viability, T/C: 3.64%
[25]
  viability, T/C: 24.9%
[26]
  viability, T/C: 23.2%
[27]
  viability, T/C: 23.9%
[28]
  viability, T/C: 24.6%
[29]
  viability, T/C: 24.8%
[30]
  viability, T/C: 2.87%
[31]
  viability, T/C: 21.9%
[32]
  viability, T/C: 20.9%
[33]
  viability, T/C: 20.7%
[34]
  viability, T/C: 22%
[35]
  viability, T/C: 21.9%
[36]
  viability, T/C: 2.6%

## Cn1cnc2c(F)c(Nc3ccc(Br)cc3Cl)c(C(=O)NOCCO)cc21 + Cc1nc(NC(=O)N2CCCC2C(N)=O)sc1-c1ccnc(C(C)(C)C(F)(F)F)c1
Second compound 0.0316 µM
  IC50: 273 nM
Second compound 0.1 µM
  IC50: 61.1 nM
Second compound 0.316 µM
  IC50: < 9.49 nM
Second compound 1 µM
  IC50: < 9.49 nM
Second compound 3.16 µM
  IC50: < 9.49 nM
Second compound 10 µM
  IC50: < 9.49 nM
Second compound 0.0316 µM, first compound 0.00949 µM
  viability, T/C: 63.2%
Second compound 0.0316 µM, first compound 0.03 µM
  viability, T/C: 55.5%
Second compound 0.0316 µM, first compound 0.0949 µM
  viability, T/C: 56.7%
Second compound 0.0316 µM, first compound 0.3 µM
  viability, T/C: 47.1%
Second compound 0.0316 µM, first compound 0.949 µM
  viability, T/C: 45.2%
Second compound 0.0316 µM, first compound 3 µM
  viability, T/C: 29.5%
Second compound 0.1 µM, first compound 0.00949 µM
  viability, T/C: 58.1%
Second compound 0.1 µM, first compound 0.03 µM
  viability, T/C: 51.1%
Second compound 0.1 µM, first compound 0.0949 µM
  viability, T/C: 47.8%
Second compound 0.1 µM, first compound 0.3 µM
  viability, T/C: 41.4%
Second compound 0.1 µM, first compound 0.949 µM
  viability, T/C: 40%
Second compound 0.1 µM, first compound 3 µM
  viability, T/C: 26.1%
Second compound 0.316 µM, first compound 0.00949 µM
  viability, T/C: 50.4%
Second compound 0.316 µM, first compound 0.03 µM
  viability, T/C: 43.2%
Second compound 0.316 µM, first compound 0.0949 µM
  viability, T/C: 48.1%
Second compound 0.316 µM, first compound 0.3 µM
  viability, T/C: 40.6%
Second compound 0.316 µM, first compound 0.949 µM
  viability, T/C: 34.3%
Second compound 0.316 µM, first compound 3 µM
  viability, T/C: 22.1%
Second compound 1 µM, first compound 0.00949 µM
  viability, T/C: 44.4%
Second compound 1 µM, first compound 0.03 µM
  viability, T/C: 37.8%
Second compound 1 µM, first compound 0.0949 µM
  viability, T/C: 38.7%
Second compound 1 µM, first compound 0.3 µM
  viability, T/C: 37.4%
Second compound 1 µM, first compound 0.949 µM
  viability, T/C: 33%
Second compound 1 µM, first compound 3 µM
  viability, T/C: 12.6%
Second compound 3.16 µM, first compound 0.00949 µM
  viability, T/C: 48.4%
Second compound 3.16 µM, first compound 0.03 µM
  viability, T/C: 37.1%
Second compound 3.16 µM, first compound 0.0949 µM
  viability, T/C: 36.2%
Second compound 3.16 µM, first compound 0.3 µM
  viability, T/C: 36.1%
Second compound 3.16 µM, first compound 0.949 µM
  viability, T/C: 30.2%
Second compound 3.16 µM, first compound 3 µM
  viability, T/C: 9.65%
Second compound 10 µM, first compound 0.00949 µM
  viability, T/C: 39.2%
Second compound 10 µM, first compound 0.03 µM
  viability, T/C: 32.7%
Second compound 10 µM, first compound 0.0949 µM
  viability, T/C: 31.6%
Second compound 10 µM, first compound 0.3 µM
  viability, T/C: 24.7%
Second compound 10 µM, first compound 0.949 µM
  viability, T/C: 17.9%
Second compound 10 µM, first compound 3 µM
  viability, T/C: 4.43%
